Test [1] has as its system IL-4 stimulated expression of CD23 in human Ramos B cells (JAK-1 and JAK-3). Kind of test: Assay for Ramos B-Cell Line Stimulated with IL-4 (CD23 upregulation, FACS). It is filed as cell-based. Conditions: read-out: IC50, Example 41. In a few lines:
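Compound effect on IL-4-driven JAK1/JAK3 signalling is gauged as CD23 surface expression, measured by FACS after 20-24 h of stimulation with IL-4 at 50 units/mL final. A 1 h compound pre-treatment at 37 °C precedes stimulation, and IC50 is derived from the results.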

Test [2] deals with up-regulation of ICAM-1 (CD54) by IFNγ in U937 human monocytic cells. Put plainly: U937 IFNγ ICAM1 FACS Assay. Type of test: cell-based. Conditions: U937 cells stimulated with IFNγ, ICAM-1 expression by FACS, read-out: IC50, Example 44. The method, boiled down:
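Readout was the geometric-mean APC anti-ICAM-1 signal by FACS on live U937 monocytic cells, with % live cells also recorded. Cells were exposed to compounds (8 points, 3-fold dilutions, duplicates) for 30 min at 37 °C before 18–24 h of IFNγ stimulation. EC50 values were computed from the dose curve.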

Where [3] appears, read: Ramos B cells stimulated with IL-4, CD23 expression by FACS.

Counter-ions that a name gives are not always drawn. Like-named read-outs stand apart in the source and are kept apart here.

As for `CNS(=O)(=O)c1cc(Nc2ncc(F)c(Nc3ccc(Cn4ccnc4)cc3)n2)ccc1C` [III-86, 5-Fluoro-N2-[3-(N-methylaminosulfony)-4-methylphenyl]-N4-[4-(1-imidazolylmethyl)phenyl]-2,4-pyrimidinediamine dihydrochloride], the IC50 in test [1] (Ramos B-cell line stimulated with IL-4, CD23 expression by FACS, dihydrochloride) was 97.6 nM; in test [2] (dihydrochloride), 6450 nM.
With `N#CCn1ccc2cc(Nc3nc(Nc4cccc(S(N)(=O)=O)c4)ncc3F)ccc21` [IX-5, N2-(3-Aminosulfonylphenyl)-N4-(1-cyanomethyleneindol-5-yl)-5-fluoro-2,4-pyrimidinediamine], the IC50 was 29.6 nM in test [1] (setting [3]) and 1850 nM in test [2].
For `N#CCn1ccc2cc(Nc3nc(Nc4ccc(Cl)c(S(N)(=O)=O)c4)ncc3F)ccc21` [IX-7, N2-(3-Aminosulfonyl-4-chlorophenyl)-N4-(1-cyanomethyleneindol-5-yl)-5-fluoro-2,4-pyrimidinediamine], in that order: 109 nM and 4730 nM.
For `Cc1ccc(Nc2ncc(F)c(Nc3ccc4c(ccn4CC#N)c3)n2)cc1S(N)(=O)=O` [IX-8, N2-(3-Aminosulfonyl-4-methylphenyl)-N4-(1-cyanomethyleneindol-5-yl)-5-fluoro-2,4-pyrimidinediamine] the same measures were 46.4 nM and 543 nM.
As to `Cc1ccc(Nc2ncc(F)c(Nc3ccc4[nH]cc(CC#N)c4c3)n2)cc1S(=O)(=O)NC1CCN(C)CC1` [IX-19, N4-(3-cyanomethylene-1H-indol-5yl)-5-fluoro-N2-[3-(1-methyl-4-aminopiperadine)sulfonyl-4-methylphenyl]-2,4-pyrimidinediamine], the values for the IC50 in test [1] (setting [3]) and in test [2] were 118 nM and 3370 nM, respectively.
For `Cc1ccc(Nc2ncc(F)c(Nc3ccc4c(c3)c(CC#N)cn4C)n2)cc1S(N)(=O)=O` [IX-20], in that order: 122 nM and 2900 nM.
Take `NS(=O)(=O)c1cccc(Nc2ncc(F)c(Nc3ccc(OCC(F)(F)F)cc3)n2)c1` [VI-47, N2-(3-Aminosulfonylphenyl)-5-fluoro-N4-(4-trifluoromethylmethyleneoxyphenyl)-2,4-pyrimidinediamine]: the values for the half-inhibitory concentration (IC50) in test [1] (setting [3]) and in test [2] were 82.8 nM and 596 nM, respectively.
On to `COCCOc1ccc(Nc2nc(Nc3ccc(Cl)c(S(N)(=O)=O)c3)ncc2F)cc1` [VI-111, N2-(3-Aminosulfonyl-4-chlorophenyl)-5-fluoro-N4-[4-(2-methoxyethyleneoxy)phenyl]-2,4-pyrimdinediamine], for which the values for the concentration for half-maximal inhibition (IC50) in test [1] (setting [3]) and in test [2] were 314 nM and 3430 nM, respectively.
As for `COCCOc1ccc(Nc2nc(Nc3ccc(C)c(S(N)(=O)=O)c3)ncc2F)cc1` [VI-112, N2-(3-Aminosulfonyl-4-methylphenyl)-5-fluoro-N4-[4-(2-methoxyethyleneoxy)phenyl]-2,4-pyrimdinediamine], the IC50 in test [1] (setting [3]) is 152 nM; in test [2], 1260 nM.
Consider `CCS(=O)(=O)N1CCc2cc(Nc3nc(Nc4ccc(S(N)(=O)=O)cc4)ncc3F)ccc2C1` [VII-13, N2-(4-aminosulfonyl)phenyl-N4-[(N-ethylsulfonyl)-1,2,3,4-tetrahydroisoquinolin-6-yl]-5-fluoro-2,4-pyrimidinediamine], for which the IC50 in test [1] (setting [3]) came to 140 nM; in test [2], 1290 nM.
Regarding `CCS(=O)(=O)N1CCc2cc(Nc3nc(Nc4cccc(S(N)(=O)=O)c4)ncc3F)ccc2C1` [VII-14, N2-(3-aminosulfonyl)phenyl-N4-[(N-ethylsulfonyl)-1,2,3,4-tetrahydroisoquinolin-6-yl]-5-fluoro-2,4-pyrimidinediamine], the concentration for half-maximal inhibition (IC50) worked out at 103 nM in test [1] (setting [3]) and 877 nM in test [2].
For `CCS(=O)(=O)N1CCc2cc(Nc3nc(Nc4ccc(C)c(S(N)(=O)=O)c4)ncc3F)ccc2C1` [VII-15, N2-(3-aminosulfonyl-4-methyl)phenyl-N4-[(N-ethylsulfonyl)-1,2,3,4-tetrahydroisoquinolin-6-yl]-5-fluoro-2,4-pyrimidinediamine], the values for the IC50 in test [1] (setting [3]) and in test [2] were 66.6 nM and 568 nM, respectively.
For `Cc1ccc(Nc2ncc(F)c(Nc3ccc4c(c3)CNCC4)n2)cc1S(N)(=O)=O` [VII-16, N2-(3-Aminosulfonyl-4-methylphenyl)-5-fluoro-N4-(1,2,3,4-tetrahydroisoquin-7-yl)-2,4-pyrimidinediamine], in that order: 275 nM and 24400 nM.
On to `CNC(=O)N1CCc2ccc(Nc3nc(Nc4ccc(C)c(S(N)(=O)=O)c4)ncc3F)cc2C1` [VII-17, N2-(3-Aminosulfonyl-4-methylphenyl)-5-fluoro-N4-[2-(methylaminocarbonyl)-1,2,3,4-tetrahydroisoquin-7-yl]-2,4-pyrimidinediamine], for which the IC50 in test [1] (setting [3]) is 353 nM; in test [2], 6960 nM.
For `Cc1ccc(Nc2ncc(F)c(Nc3ccc4c(c3)CN(C(=O)N(C)C)CC4)n2)cc1S(N)(=O)=O` [VII-18, N2-(3-Aminosulfonyl-4-methylphenyl)-5-fluoro-N4-[2-(dimethylaminocarbonyl)-1,2,3,4-tetrahydroisoquin-7-yl]-2,4-pyrimidinediamine], in that order: 227 nM and 1290 nM.
`CNC(=O)N1CCCc2cc(Nc3nc(Nc4ccc(C)c(S(N)(=O)=O)c4)ncc3F)ccc21` [VII-19, N2-(3-Aminosulfonyl-4-methylphenyl)-5-fluoro-N4-[1-(methylaminocarbonyl)-1,2,3,4-tetrahydroquin-6-yl]-2,4-pyrimidinediamine]: the IC50 in test [1] (setting [3]) was determined as 87.5 nM; in test [2], 1260 nM.
As for `COCCCn1ncc2cc(Nc3nc(Nc4cccc(S(N)(=O)=O)c4)ncc3F)ccc21` [VII-22, N2-(3-Aminosulfonylphenyl)-5-fluoro-N4-[1-(3-methoxypropyl)indazolin-5-yl]-2,4-pyrimidinediamine], the IC50 was determined as 111 nM in test [1] (setting [3]) and 849 nM in test [2].
For `COCCn1ncc2cc(Nc3nc(Nc4cccc(S(N)(=O)=O)c4)ncc3F)ccc21` [VII-23, N2-(3-Aminosulfonylphenyl)-5-fluoro-N4-[1-(2-methoxyethyl)indazolin-5-yl]-2,4-pyrimidinediamine], in that order: 129 nM and 596 nM.
As for `NC1CCOc2ccc(Nc3nc(Nc4ccc(S(N)(=O)=O)cc4)ncc3F)cc21` (stereo not shown) [VII-29, N2-(4-Aminosulfonylphenyl)-N4-(chroman-4-amine-6-yl)-5-fluoro-2,4-pyrimidinediamine], the results for the IC50 in test [1] (setting [3]) and in test [2] were 47.6 nM and 38500 nM, respectively.
On to `N#CCN1C(=O)CSc2ccc(Nc3nc(Nc4cccc(S(N)(=O)=O)c4)ncc3F)cc21` [VII-36, N2-(3-Aminosulphonylphenyl)-5-fluoro-N4-(3-oxo-4-cyanomethyl-benzo[1,4]thiazin-6-yl)-2,4-pyrimidinediamine], for which the IC50 turned out to be 29.4 nM in test [1] (setting [3]) and 1090 nM in test [2].
As to `CN1C(=O)C(C)(C)Oc2cc(Nc3nc(Nc4cccc(S(N)(=O)=O)c4)ncc3F)cnc21` [VII-42, N2-(3-Aminosulfonylphenyl)-N4-[2,2,4-trimethyl-3-oxo-5-pyrid[1,4]oxazin-7-yl]-5-fluoro-2,4-pyrimidinediamine], the IC50 was found to be 669 nM in test [1] (setting [3]) and 45500 nM in test [2].
For `Cc1ccc(Nc2ncc(F)c(Nc3ccc4c(c3)NC(=O)CS4)n2)cc1S(N)(=O)=O` [VII-45, N2-(3-Aminosulphonyl-4-methyl-phenyl)-5-fluoro-N4-(3-oxo-4H-benzo[1,4]thiazin-6-yl)-2,4-pyrimidinediamine], in that order: 43.9 nM and 477 nM.
As for `CN1C(=O)CSc2ccc(Nc3nc(Nc4cccc(S(=O)(=O)N5CCCCC5)c4)ncc3F)cc21` [VII-50, 5-Fluoro-N4-(4-methyl-3-oxo-benz[1,4]thiazin-6-yl)-N2-(3-pipendinosulfonylphenyl)-2,4-pyrimidinediamine], the IC50 in test [1] (setting [3]) amounted to 350 nM; in test [2], 5060 nM.
For `CS(=O)(=O)N1CCc2cc(Nc3nc(Nc4cccc(S(N)(=O)=O)c4)ncc3F)ccc21` [VII-60, N2-(3-Aminosulfonylphenyl)-5-fluoro-N4-[4-(1-methylsulfonyl)indolin-5-yl]-2,4-pyrimidinediamine], in that order: 65 nM and 570 nM.
For the compound `CNS(=O)(=O)c1cc(Nc2ncc(F)c(Nc3ccc4c(c3)CCN4S(C)(=O)=O)n2)ccc1C` [VII-62, 5-Fluoro-N2-[3-(N-methylaminosulfony)-4-methylphenyl]-N4-[4-(1-methylsulfonyl)indolin-5-yl]-2,4-pyrimidinediamine], the IC50 in test [1] (setting [3]) stood at 104 nM; in test [2] it was 496 nM.
For `CS(=O)(=O)N1CCc2cc(Nc3nc(Nc4ccc(S(N)(=O)=O)cc4)ncc3F)ccc21` [VII-63], in that order: 233 nM and 6030 nM.
For `COc1ccc(Nc2nc(Nc3cc(C)c4c(c3)S(=O)(=O)NC=N4)ncc2F)cc1Cl` [VIII-3, N4-(3-Chloro-4-methoxyphenyl)-5-fluoro-N2-(5-methyl-2H-1,1-dioxo-1,2,4-benzothiadiazin-7-yl)-2,4-pyrimidinediamine] the same measures were 153 nM and 10100 nM.
With “N2-(3-Aminosulfonyl-4-methylphenyl)-5-fluoro-N4-[4-(2-pyridinyl)-3-fluoromethyleneoxyphenyl]-2,4-pyrimidinediamine [Compound I-172]”, the IC50 in test [1] (Ramos B-cell line stimulated with IL-4, CD23 expression by FACS) was 47.3 nM; in test [2], 1100 nM.
As for “N2-(3-Aminosulphonylphenyl)-5-fluoro-N4-[4-(3-pyridinylmethyl)benzo[1,4]oxazin-7-yl]-2,4-pyrimidinediamine [VII-55]”, the half-maximal inhibitory concentration (IC50) amounted to 184 nM in test [1] (setting [3]) and 1670 nM in test [2].

What is called IC50 is the midpoint of a concentration-inhibition curve.

The values are drawn from US11827628B2, “Compositions and methods for inhibition of the JAK pathway” (Rigel Pharmaceuticals, Inc., priority 2005, dated 2023).
